The source of these data is patent US20230399341A1, “7-PHENYL SUBSTITUTED 2-AMINOQUINAZOLINE INHIBITORS OF HPK1” (MERCK SHARP & DOHME LLC, priority 2020, published 2023).

This test addresses T1, Human HPK1, catalytic domain (Homo sapiens, UniProt Q92918).
T1 sequence (Q92918 1-346): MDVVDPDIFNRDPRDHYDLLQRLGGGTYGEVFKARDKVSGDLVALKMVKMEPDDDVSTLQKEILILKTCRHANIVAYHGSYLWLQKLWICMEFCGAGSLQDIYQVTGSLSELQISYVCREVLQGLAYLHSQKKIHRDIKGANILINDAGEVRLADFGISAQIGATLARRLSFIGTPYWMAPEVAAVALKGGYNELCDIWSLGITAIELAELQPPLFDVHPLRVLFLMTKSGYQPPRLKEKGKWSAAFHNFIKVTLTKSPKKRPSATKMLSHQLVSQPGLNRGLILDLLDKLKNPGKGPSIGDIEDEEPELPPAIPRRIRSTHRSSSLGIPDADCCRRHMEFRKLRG
The experiment in a line: HPK1-SLP76 TR-FRET Assay. It is filed as biochemical. Conditions: 75 pM HPK1, ATP 10 uM, SLP76 10 nM, 30 min pre-incubation, 60 min reaction.

Consider `COc1cc2c(cc1Nc1ncc3ccc(N[C@H]4CCN(C(=O)C5CC5)C4)cc3n1)CN(C)CC2` [Compound 3-22, cyclopropyl[(3S)-3-({2-[(6-meth-oxy-2-methyl-1,2,3,4-tetrahydro-isoquinolin-7-yl)amino]quinaz-olin-7-yl}amino)pyrrolidin-1-yl]-methanone], for which half-maximal inhibition (IC50) required 535 nM. This counts as sub-micromolar. Take `Cc1c(-c2c(F)c(N)c3cnc(Nc4ccc5c(c4)CN(C(C)C)CC5)nc3c2Cl)cnc2c1NCCO2` (single isomer, unassigned) [Compound 2-113, 8-chloro-6-fluoro-N2-(2-isopropyl-1,2,3,4-tetrahydroisoquinolin-7-yl)-7-(8-methyl-2,3-dihydro-1H-pyrido[2,3-b][1,4]oxazin-7-yl)quinazoline-2,5-diamine]: the IC50 turned out to be 0.0389 nM.

`CC(=O)N1CCCC1c1ccc(Nc2ncc3c(N)c(F)c(-c4cnc5c(c4C)NCCO5)cc3n2)cc1` (single isomer, unassigned) [Compound 2-29, (R or S)-1-[2-(4-{[5-amino-6-fluoro-7-(8-methyl-2,3-dihydro-1H-pyrido[2,3-b][1,4]oxazin-7-yl)quinazolin-2-yl]amino}phenyl)pyrrolidin-1-yl]ethan-1-one]: the IC50 was 0.273 nM. With `COc1cc2c(cc1Nc1ncc3c(N)c(F)c(-c4cc5oc(=O)[nH]c5cc4C)cc3n1)CN(C)CC2` [Compound 2-49, 6-(5-amino-6-fluoro-2-((6-methoxy-2-methyl-1,2,3,4-tetrahydroisoquinolin-7-yl)amino)quinazolin-7-yl)-5-methylbenzo[d]oxazol-2(3H)-one], the IC50 worked out at 10.5 nM. Compared with the last compound, the IC50 is about 38-fold higher.

The compound `COc1cc2c(cc1Nc1ncc3ccc(-c4cccc5nc(N)[nH]c45)cc3n1)CNCC2` [Compound 1-73] showed a half-maximal inhibitory concentration (IC50) of 88.5 nM. This IC50 lies about 8.4-fold higher than the previous one. As for `COc1cc2c(cc1Nc1ncc3c(N)c(F)c(-c4cnc5c(c4C)NCCO5)cc3n1)CN(C)CC2` [Compound 2-2, 6-fluoro-N~2~-(6-methoxy-2-methyl-1,2,3,4-tetrahydroisoquinolin-7-yl)-7-(8-methyl-2,3-dihydro-1H-pyrido[2,3-b][1,4]oxazin-7-yl)quinazoline-2,5-diamine], the IC50 came out at 0.0915 nM.

`COc1cc2c(cc1Nc1ncc3ccc(-c4ccc(C#N)nc4)cc3n1)CN(C)CC2` [Compound 1-103, 5-{2-[(6-methoxy-2-methyl-1,2,3,4-tetrahydroisoquinolin-7-yl)amino]quinazolin-7-yl}pyridine-2-carbonitrile]: the IC50 came to 328 nM. This IC50 lies about 3600-fold higher than the previous one.

For the compound `COc1cc2c(cc1Nc1ncc3ccc(NCc4cc(C)n(C)n4)cc3n1)CN(C)CC2` [Compound 3-72, N~7~-[(1,5-dimethyl-1H-pyrazol-3-yl)methyl]-N~2~-(6-methoxy-2-methyl-1,2,3,4-tetra-hydroisoquinolin-7-yl)quinaz-oline-2,7-diamine], the IC50 was found to be 290 nM.

For `COc1cc2c(cc1Nc1ncc3ccc(-c4ccccc4)cc3n1)CN(C)CC2` [Compound 1-1, N-(6-methoxy-2-methyl-1,2,3,4-tetrahydroisoquinolin-7-yl)-7-phenylquinazolin-2-amine], the half-inhibitory concentration (IC50) was found to be 140 nM.

For the compound `COc1cc2c(cc1Nc1ncc3ccc(Nc4ccc5c(c4)C(=O)NCC5)cc3n1)CN(C)CC2` [Compound 3-21, 7-({2-[(6-methoxy-2-methyl-1,2,3,4-tetrahydroisoquinolin-7-yl)amino]quinazolin-7-yl}-amino)-3,4-dihydroisoquinolin-1(2H)-one], 30.4 nM corresponded to half-maximal inhibition (IC50). With `COc1cc(C(C)S(C)(=O)=O)ccc1Nc1ncc2c(N)c(F)c(-c3cnc4c(c3C)NCCO4)cc2n1` (single isomer, unassigned) [Compound 2-56, (R or S)-6-fluoro-N˜2˜-{2-methoxy-4-[1-(methylsulfonyl)ethyl]phenyl}-7-(8-methyl-2,3-dihydro-1H-pyrido[2,3-b][1,4]oxazin-7-yl)quinazoline-2,5-diamine], the IC50 came to 0.102 nM. Turning to `Cc1c(-c2cc3nc(Nc4ccc5c(c4)CN(C)CCC5)ncc3c(N)c2F)cnc2c1NCCO2` [Compound 2-117, 6-fluoro-7-(8-methyl-2,3-dihydro-1H-pyrido[2,3-b][1,4]oxazin-7-yl)-N~2~- (2-methyl-2,3,4,5-tetrahydro-1H-2-benzazepin-8-yl)quinazoline-2,5-diamine], the IC50 stood at 0.0406 nM. This IC50 lies about 2.5-fold lower than the previous one.

Regarding `COc1cc2c(cc1Nc1ncc3ccc(-c4cncc(C(=O)N5CCOCC5)c4)cc3n1)CNCC2` [Compound 1-47, (5-{2-[(6-methoxy-1,2,3,4-tetrahydroisoquinolin-7-yl)amino]quinazolin-7-yl}pyridin-3-yl)(morpholin-4-yl)methanone], 273 nM corresponded to half-maximal inhibition (IC50). `COc1cc2c(cc1Nc1ncc3ccc(NC4CCCOC4)cc3n1)CN(C)CC2` (racemic) [Compound 3-69, (S and R)-N-2~-(6-methoxy-2-methyl-1,2,3,4-tetrahydroiso-quinolin-7-yl)-N~7~-(oxan-3-yl)quinazoline-2,7-diamine]: the midpoint of inhibition, the IC50, lay at 470 nM. Compared with the last compound, the IC50 is about 1.7-fold higher. `COc1cc2c(cc1Nc1ncc3ccc(-c4c(C)cccc4F)cc3n1)CNCC2` [Compound 1-94, 7-(2-fluoro-6-methylphenyl)-N-(6-methoxy-1,2,3,4-tetrahydroisoquinolin-7-yl)quinazolin-2-amine]: the IC50 was determined as 81.3 nM. As for `COc1ccc(Nc2ncc3c(N)c(F)c(-c4cnc5c(c4C)NCCO5)cc3n2)c(C)n1` [Compound 2-77, 6-fluoro-N~2~-(6-methoxy-2-methylpyridin-3-yl)-7-(8-methyl-2,3-dihydro-1H-pyrido[2,3-b][1,4]oxazin-7-yl)quinazoline-2,5-diamine], half-maximal inhibition (IC50) required 0.782 nM. As for `CCC1COC(=O)N1c1cc(N)c2cnc(Nc3cc4c(cc3OC)CCN(C)C4)nc2c1` (single isomer, unassigned) [Compound 3-15, (S or R)-3-{5-amino-2-[(6-methoxy-2-methyl-1,2,3,4-tetrahydroisoquinolin-7-yl)amino]quinazolin-7-yl}-4-ethyl-1,3-oxazolidin-2-one], 3.24 nM corresponded to half-maximal inhibition (IC50). Compared with the last compound, the IC50 is about 4.1-fold higher. Next, `Cc1c(-c2cc3nc(Nc4cnc5c(c4)CN(C)CC5)ncc3c(N)c2F)cnc2c1NCCO2` [Compound 2-183, 6-fluoro-7-(8-methyl-2,3-dihydro-1H-pyrido[2,3-b][1,4]oxazin-7-yl)-N~2~- (6-methyl-5,6,7,8-tetrahydro-1,6-naphthyridin-3-yl)quinazoline-2,5-diamine]: 0.0379 nM; `Cc1c(-c2cc3nc(Nc4ccc(NS(C)(=O)=O)cc4)ncc3c(N)c2F)cnc2c1NCCO2` [Compound 2-16, N-(4-{[5-amino-6-fluoro-7-(8-methyl-2,3-dihydro-1H-pyrido[2,3-b][1,4]oxazin-7-yl)quinazolin-2-yl]amino}phenyl)methane-sulfonamide]: 0.0932 nM; `CC(=O)N1CCCc2cc(Nc3ncc4c(N)c(F)c(-c5cnc6c(c5C)NCCO6)cc4n3)ccc21` [Compound 2-7, 1-[6-{[5-amino-6-fluoro-7-(8-methyl-2,3-dihydro-1H-pyrido[2,3-b][1,4]oxazin-7-yl)quinazolin-2-yl]amino}-3,4-dihydroquinolin-1(2H)-yl]ethan-1-one]: 0.112 nM. As to `COc1cc2c(cc1Nc1ncc3ccc(-c4cccc(S(=O)(=O)N5CCOCC5)c4)cc3n1)CNCC2` [Compound 1-77, N-(6-methoxy-1,2,3,4-tetrahydroisoquinolin-7-yl)-7-{3-[(morpholin-4-yl)sulfonyl]phenyl}quinazo-lin-2-amine], the IC50 turned out to be 24.7 nM.

With `COc1cc2c(cc1Nc1ncc3ccc(-c4cc(S(=O)(=O)N5CCCC5)ccc4C)cc3n1)CNCC2` [Compound 1-78, N-(6-methoxy-1,2,3,4-tetrahydroisoquinolin-7-yl)-7-{2-methyl-5-[(pyrrolidin-1-yl)sulfonyl]phenyl}quinazo-lin-2-amine], the IC50 amounted to 353 nM. The compound `Cc1c(-c2cc3nc(Nc4ccc5c(c4)CN(C)CC5)ncc3c(N)c2F)cnc2cc[nH]c12` [Compound 2-130, 6-fluoro-7-(7-methyl-1H-pyrrolo[3,2-b]pyridin-6-yl)-N~2~-(2-methyl-1,2,3,4-tetrahydroisoquinolin-7-yl)quinazoline-2,5-diamine] returned a half-inhibitory concentration (IC50) of 0.103 nM. For `CNC(=O)C(C)(C)c1ccc(Nc2ncc3c(N)c(F)c(-c4cnc5c(c4C)NCCO5)cc3n2)cc1` [Compound 2-187, 2-(4-{[5-amino-6-fluoro-7-(8-methyl-2,3-dihydro-1H-pyrido[2,3-b][1,4]oxazin-7-yl)quinazolin-2-yl]amino}phenyl)-N,2-dimethylpropanamide] the value was 0.0812 nM; for `Cc1c(-c2c(F)c(N)c3cnc(Nc4ccc(CS(=O)(=O)C5CC5)cc4)nc3c2Cl)cnc2c1NCCO2` [Compound 2-137, 8-chloro-N2-(4-((cyclopropylsulfonyl)methyl)phenyl)-6-fluoro-7-(8-methyl-2,3-dihydro-1H-pyrido[2,3-b][1,4]oxazin-7-yl)quinazoline-2,5-diamine], 100 nM. With `COc1cc2c(cc1Nc1ncc3ccc(-c4cnn5c4CCC5)cc3n1)CNCC2` [Compound 1-35, 7-(5,6-dihydro-4H-pyrrolo[1,2-b]pyrazol-3-yl)-N-(6-methoxy-1,2,3,4-tetrahydroisoquinolin-7-yl)quinazolin-2-amine], the IC50 was determined as 0.689 nM. The compound `COc1cc2c(cc1Nc1ncc3ccc(Nc4cc(S(C)(=O)=O)c(C)cc4C)cc3n1)CN(C)CC2` [Compound 3-42, N~7~-[2,4-dimethyl-5-(methyl-sulfonyl)phenyl]-N~2~-(6-methoxy-2-methyl-1,2,3,4-tetra-hydroisoquinolin-7-yl)quinaz-oline-2,7-diamine] returned a half-inhibitory concentration (IC50) of 3.17 nM. Compound `CNC(=O)c1ccc(-c2ccc3cnc(Nc4cc5c(cc4OC)CCNC5)nc3c2)cn1` [Compound 1-28, 5-{2-[(6-methoxy-1,2,3,4-tetrahydroisoquinolin-7-yl)amino]quinazolin-7-yl}-N-methylpyridine-2-carboxamide] gave an IC50 of 198 nM.
